biological target: T1, thrombin (Bos taurus, UniProt P00735); assay: Fibrinogen coagulation time (thrombin-induced clotting of fibrinogen); type: biochemical; conditions: bovine fibrinogen, borate saline buffer pH 7.4, thrombin 0.1 ml of 5 units/ml, 25°C; control coagulation time 50-55 seconds; read-out: Concentration required to prolong the coagulation time by a factor of 2
T1 construct: mature alpha-thrombin (light plus heavy chain) cut from prothrombin
Description: The antithrombotic activities of the N^2 -dansyl-L-arginine derivatives of this invention were compared with those of a known antithrombotic agent, (N^2 -(p-tolylsulfonyl)-L-arginine methyl ester). by determining the fibrinogen coagulation time. The measurement of the fibrinogen coagulation time was conducted as follows:
Immediately after mixing, the reaction mixture was transferred from the ice bath to a bath thermostated at 25°C. Coagulation times were taken as the period between the time of transference to the 25°C bath and the time of the first appearance of fibrin threads.
The term "concentration required to prolong the coagulation time by a factor of two" is the concentration of an active ingredient required to prolong the normal coagulation time 50-55 seconds to 100-110 seconds.

| SMILES | IC (2-fold clotting time) [µM] |
| --- | --- |
| CCC1CCN(C(=O)[C@H](CCCNC(=N)N)NS(=O)(=O)c2cccc3c(N(C)C)cccc23)CC1 [Sample 59, 4-ethyl-1-(N^2-dansyl-L-arginyl) piperidine] | 0.1 |
| CN(C)c1cccc2c(S(=O)(=O)N[C@@H](CCCNC(=N)N)C(=O)N3Cc4ccccc4C3)cccc12 [Sample 70, 2-(N^2-dansyl-L-arginyl)isoindoline] | 0.67 |
| CN(C)c1cccc2c(S(=O)(=O)N[C@@H](CCCNC(=N)N)C(=O)N3CCCc4ccccc43)cccc12 [Sample 72, N^2-dansyl-N-(1,2,3,4-tetrahydro-1-quinolyl)argininamide] | 6.5 |

The next lines start with the values.

| IC (2-fold clotting time) [µM] | SMILES |
| --- | --- |
| 1 | CCCC1CCN(C(=O)[C@H](CCCNC(=N)N)NS(=O)(=O)c2cccc3c(N(C)C)cccc23)CC1 [Sample 60, 4-(n-propyl)-1-(N^2-dansyl-L-arginyl)piperidine] |
| 1 | CC(C)C1CCN(C(=O)[C@H](CCCNC(=N)N)NS(=O)(=O)c2cccc3c(N(C)C)cccc23)CC1 [Sample 61, 4-(isopropyl)-1-(N^2-dansyl-L-arginyl)piperidine] |
| 2.8 | COC(=O)C1CCN(C(=O)[C@H](CCCNC(=N)N)NS(=O)(=O)c2cccc3c(N(C)C)cccc23)CC1 [Sample 62, 4-methoxycarbonyl-1-(N^2-dansyl-L-arginyl)piperidine] |
| 100 | CN(C)c1cccc2c(S(=O)(=O)N[C@@H](CCCNC(=N)N)C(=O)N3CCC(C(N)=O)CC3)cccc12 [Sample 63] |
| 0.9 | CN(C)c1cccc2c(S(=O)(=O)N[C@@H](CCCNC(=N)N)C(=O)N3CCCCCC3)cccc12 [Sample 64, N^2 -dansyl-N,N-hexamethylene-L-argininamide] |
| 1 | CN(C)c1cccc2c(S(=O)(=O)N[C@@H](CCCNC(=N)N)C(=O)N3CCCCCCC3)cccc12 [Sample 65, N^2 -dansyl-N,N-heptamethylene-L-argininamide] |
| 2 | CN(C)c1cccc2c(S(=O)(=O)N[C@@H](CCCNC(=N)N)C(=O)N3CCCCCCCC3)cccc12 [Sample 66, N^2 -dansyl-N,N-octamethylene-L-argininamide] |
| 1.5 | CN(C)c1cccc2c(S(=O)(=O)N[C@@H](CCCNC(=N)N)C(=O)N3CCOCC3)cccc12 [Sample 67, 4-(N^2-dansyl-L-arginyl)morpholine] |
| 20 | CC1CN(C(=O)[C@H](CCCNC(=N)N)NS(=O)(=O)c2cccc3c(N(C)C)cccc23)CC(C)O1 (some centres unmarked) [Sample 68] |
| 2 | CN1CCN(C(=O)[C@H](CCCNC(=N)N)NS(=O)(=O)c2cccc3c(N(C)C)cccc23)CC1 [Sample 71, 4-methyl-1-(N^2-dansyl-L-arginyl)piperazine] |

system: not listed separately; assay: Acute toxicity (LD50) by oral administration in mice; conditions: mouse, in vivo, per kilogram of body weight

| SMILES | LD50 [mg/kg] |
| --- | --- |
| CN(C)c1cccc2c(S(=O)(=O)N[C@@H](CCCNC(=N)N)C(=O)N3Cc4ccccc4C3)cccc12 [2-(N^2-dansyl-L-arginyl)isoindoline] | 1360 |
| CCC1CCN(C(=O)[C@H](CCCNC(=N)N)NS(=O)(=O)c2cccc3c(N(C)C)cccc23)CC1 [4-ethyl-1-(N^2-dansyl-L-arginyl)piperidine] | 1380 |
| CC1CCN(C(=O)[C@H](CCCNC(=N)N)NS(=O)(=O)c2cccc3c(N(C)C)cccc23)CC1 [4-methyl-1-(N^2-dansyl-L-arginyl)piperidine] | 1310 |
| CCCCOC(=O)[C@H](CCCNC(=N)N)NS(=O)(=O)c1cccc2c(N(C)C)cccc12 [N^2 -dansyl-L-arginine n-butyl ester] | > 6000 |

— patent publication US3978045A, “N^2 -dansyl-L-arginine derivatives, and the pharmaceutically acceptable acid addition salts thereof” (priority 1973, dated 1976)
